According to US5486517A, “Benzimidazoles and imidazopyridines as central nervous system agents” (Warner-Lambert Company, priority 1994, dated 1996):
Read-outs that look alike come from different tables or passages of the source.

Assays:
Human D2 Receptors = target: T1, Human D2 Receptors (Homo sapiens, UniProt P14416); test: Inhibition of [^3 H]spiperone binding to human D2 receptors
T1 construct: expressed in transfected cells
Description: (§1) The compounds of Formula I are valuable dopaminergic agents. Dopamine D2 antagonists are established as antipsychotic agents. More recently, the dopamine D3 receptor has been identified. On the basis of the localization of the dopamine D3 receptor in the limbic area of the brain, a selective D3 antagonist should show antipsychotic activity but not have the neurological side effects of D2 antagonists. The tests employed indicate that compounds of Formula I bind selectively to the dopamine D3 receptor. Thus, the compounds of Formula I were tested for their ability to bind to dopamine receptors as measured by their inhibition of [^3 H]spiperone binding to the human D2 and D3 receptors in a receptor assay described by MacKenzie R. G., et al., Characterization of the human D3 dopamine receptor expressed in transfected cell lines, Eur. J. Pharmacol., 266:79 (1994); and for their ability to inhibit locomotor activity in mice and rats, a measure of antipsychotic activity, according to the assay described by McLean J. R., et al., Pharmacology, Biochemistry and Behavior, 8:97-99 (1978). The above test methods are incorporated herein by reference.

Human D3 Receptors = target: T2, Human D3 Receptors (Homo sapiens, UniProt P35462); test: Inhibition of [^3 H]spiperone binding to human D3 receptors
T2 construct: expressed in transfected cells
Description: Dopamine D2 antagonists are established as antipsychotic agents. More recently, the dopamine D3 receptor has been identified. On the basis of the localization of the dopamine D3 receptor in the limbic area of the brain, a selective D3 antagonist should show antipsychotic activity but not have the neurological side effects of D2 antagonists. […] The above test methods are incorporated herein by reference.

[1] = tested on: Locomotor Activity in Rats; test: Inhibition of locomotor activity in rats; type: in vivo; conditions: Rattus norvegicus, IP
Description: as §1

[2] = human D2, read-out: Inhibition of [^3 H]Spiperone Binding to Human D2 Receptors IC50
[3] = human D3, transfected cell lines, read-out: Inhibition of [^3 H]Spiperone Binding to Human D3 Receptors IC50

T1 sequence (P14416 whole entry): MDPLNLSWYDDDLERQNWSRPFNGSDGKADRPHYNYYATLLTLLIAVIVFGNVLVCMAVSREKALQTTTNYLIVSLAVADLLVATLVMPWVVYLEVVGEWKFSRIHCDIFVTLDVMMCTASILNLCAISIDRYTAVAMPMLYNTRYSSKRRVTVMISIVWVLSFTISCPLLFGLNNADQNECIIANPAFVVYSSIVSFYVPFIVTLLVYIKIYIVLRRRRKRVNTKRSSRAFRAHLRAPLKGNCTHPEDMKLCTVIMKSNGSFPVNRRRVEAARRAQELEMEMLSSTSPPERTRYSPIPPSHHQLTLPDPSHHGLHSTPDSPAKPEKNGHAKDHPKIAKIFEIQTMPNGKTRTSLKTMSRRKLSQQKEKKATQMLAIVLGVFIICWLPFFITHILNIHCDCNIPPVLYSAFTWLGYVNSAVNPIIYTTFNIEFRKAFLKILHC
T2 sequence (P35462 whole entry): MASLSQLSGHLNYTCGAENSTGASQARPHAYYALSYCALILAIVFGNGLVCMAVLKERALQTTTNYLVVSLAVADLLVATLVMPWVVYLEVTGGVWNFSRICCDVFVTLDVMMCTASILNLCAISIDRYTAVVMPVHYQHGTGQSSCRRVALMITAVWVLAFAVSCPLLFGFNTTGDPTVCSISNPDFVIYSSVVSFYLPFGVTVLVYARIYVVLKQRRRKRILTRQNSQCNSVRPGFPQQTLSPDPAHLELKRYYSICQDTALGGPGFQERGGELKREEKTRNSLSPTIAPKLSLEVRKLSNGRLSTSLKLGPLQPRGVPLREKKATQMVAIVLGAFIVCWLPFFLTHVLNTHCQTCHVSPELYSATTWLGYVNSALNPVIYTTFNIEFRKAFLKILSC

| SMILES | IC50 (Human D2 Receptors; [2]) | IC50 (Human D3 Receptors; [3]) | further results |
| --- | --- | --- | --- |
| COc1ccc(N2CCN(CCCOc3ccc(-c4nc5ccccc5[nH]4)cc3)CC2)cc1 [Example 11, 2-[4-[3-[4-(4-Methoxyphenyl)-1-piperazinyl]-propoxy]phenyl]-1H-benzimidazole] | 265 nM | – | – |
| COc1ccccc1N1CCN(CCNC(=O)c2ccc(-c3nc4ccccc4[nH]3)cc2)CC1 [Example 20, 4-(1H-Benzimidazol-2-yl)-N-[2-[4-(2-methoxyphenyl)-1-piperazinyl]ethyl]benzamide] | 55 nM | 24 nM | – |
| CCCSc1ccccc1N1CCN(CCCOc2ccc(-c3nc4ccccc4[nH]3)cc2)CC1 [Example 7, 2-[4-[3-[4-[2-(Propylthio)phenyl]-1-piperazinyl]propoxy]phenyl]-1H-benzimidazole] | 3.7 nM | – | – |
| Clc1cccc(N2CCN(CCCOc3ccc(-c4nc5cccnc5[nH]4)cc3)CC2)c1Cl [Example 13, 2-[4-[3-[4-(2,3-Dichlorophenyl)-1-piperazinyl]propoxy]phenyl]-3H-imidazo[4,5-b]pyridine] | 329 nM | 3 nM | ED50 [1]: 4.2 mg/kg |
| C(#Cc1ccc(-c2nc3ccccc3[nH]2)cc1)CCN1CCN(c2ccccc2)CC1 [Example 15, 2-[4-[4-(4-Phenyl-1-piperazinyl)-1-butynyl]phenyl]-1H-benzimidazole] | 581 nM | 1.7 nM | – |
| c1ccc(N2CCN(CCCOc3ccc(-c4nc5ccccc5[nH]4)cc3)CC2)cc1 [Example 1, 2-[4-[3-(4-Phenyl-1-piperazinyl)propoxy]phenyl]-1H-benzimidazole] | 406 nM | 1 nM | ED50 [1]: 2.3 mg/kg |
| Clc1cccc(N2CCN(CCCOc3ccc(-c4nc5ccccc5[nH]4)cc3)CC2)c1 [Example 12, 2-[4-[3-[4-(3-Chlorophenyl)-1-piperazinyl]-propoxy]phenyl]-1H-benzimidazole] | 1270 nM | – | – |
| CCCSc1ccccc1N1CCN(CCNC(=O)c2ccc(-c3nc4ccccc4[nH]3)cc2)CC1 [Example 19, 4-(1H-Benzimidazol-2-yl)-N-[2-[4-[2-(propylthio)phenyl]-1-piperazinyl]ethyl]benzamide] | 119 nM | 19 nM | – |
| c1ccc(N2CCN(CCCCOc3ccc(-c4nc5ccccc5[nH]4)cc3)CC2)cc1 [Example 16, 2-[4-[4-(4-Phenyl-1-piperazinyl)butoxy]phenyl]-1H-benzimidazole] | 46 nM | 1.7 nM | – |
| c1ccc(N2CCN(CCCNc3ccc(-c4nc5ccccc5[nH]4)cc3)CC2)cc1 [Example 17, N-[4-(1H-Benzimidazol-2-yl)phenyl]-4-phenyl-1-piperazine-3-propanamine] | 22 nM | 1.6 nM | – |
| Cn1c(-c2ccc(OCCCN3CCN(c4ccccc4)CC3)cc2)nc2ccccc21 [Example 14, 1-Methyl-2-[4-[3-(4-phenyl-1-piperazinyl)-propoxy]phenyl]-1H-benzimidazole] | 219 nM | 9.5 nM | – |
| Fc1ccc(N2CCN(CCCOc3ccc(-c4nc5ccccc5[nH]4)cc3)CC2)cc1 [Example 6, 2-[4-[3-[4-(4-Fluorophenyl)-1-piperazinyl]propoxy]phenyl]-1H-benzimidazole] | 119 nM | 16 nM | – |
| C1=C(c2ccccc2)CCN(CCCOc2ccc(-c3nc4ccccc4[nH]3)cc2)C1 [Example 8, 2-[4-[3-(3,6-Dihydro-4-phenyl-1(2H)-pyridinyl)propoxy]phenyl]-1H-benzimidazole] | 672 nM | – | IC50 (Human D3 Receptors): 18 nM |
| COc1ccccc1N1CCN(CCCOc2ccc(-c3nc4ccccc4[nH]3)cc2)CC1 [Example 10, 2-[4-[3-[4-(2-Methoxyphenyl)-1-piperazinyl]-propoxy]phenyl]-1H-benzimidazole] | – | – | IC50 (Human D2 Receptors): 8 nM |
| O=C(NCCN1CCN(c2ccccc2)CC1)c1ccc(-c2nc3ccccc3[nH]2)cc1 [Example 18, 4-(1H-Benzimidazol-2-yl)-N-[2-(4-phenyl-1-piperazinyl)ethyl]benzamide] | 281 nM | – | – |
| Clc1cccc(N2CCN(CCCOc3ccc(-c4nc5ccccc5[nH]4)cc3)CC2)c1Cl [Example 2, 2-[4-[3-[4-(2,3-Dichlorophenyl)-1-piperazinyl]propoxy]phenyl]-1H-benzimidazole] | 45 nM | 1.7 nM | – |
| c1cnc(N2CCN(CCCOc3ccc(-c4nc5ccccc5[nH]4)cc3)CC2)nc1 [Example 4, 2-[4-[3-[4-(2-Pyrimidinyl)-1-piperazinyl]propoxy]phenyl]-1H-benzimidazole] | 269 nM | – | – |
| C(=C/c1ccc(-c2nc3ccccc3[nH]2)cc1)/CCN1CCN(c2ccccc2)CC1 [Example 21, (Z)-2-[4-[4-(4-Phenyl-1-piperazinyl)-1-butenyl]phenyl]-1H-benzimidazole] | 100 nM | 81 nM | – |
| Clc1ccc(N2CCN(CCCOc3ccc(-c4nc5ccccc5[nH]4)cc3)CC2)cc1 [Example 9, 2-[4-[3-[4-(4-Chlorophenyl)-1-piperazinyl]propoxy]phenyl]-1H-benzimidazole] | 784 nM | – | – |
| Cc1ccc(N2CCN(CCCOc3ccc(-c4nc5ccccc5[nH]4)cc3)CC2)cc1 [Example 5, 2-[4-[3-[4-(4-Methylphenyl)-1-piperazinyl]propoxy]phenyl]-1H-benzimidazole] | 2780 nM | 102 nM | – |
| c1ccc(N2CCN(CCCCc3ccc(-c4nc5ccccc5[nH]4)cc3)CC2)cc1 [Example 22, 2-[4-[4-(4-Phenyl-1-piperazinyl)butyl]phenyl]-1H-benzimidazole] | 32 nM | 1.3 nM | – |
| c1ccc(N2CCN(CCCOc3ccc(-c4nc5ccccc5[nH]4)cc3)CC2)nc1 [Example 3, 2-[4-[3-[4-(2-Pyridinyl)-1-piperazinyl]propoxy]phenyl]-1H-benzimidazole] | 70 nM | – | – |
